Data: PMC11941218, “Juglone-Bearing Thiopyrano[2,3-d]thiazoles Induce Apoptosis in Colorectal Adenocarcinoma Cells” (Cells, 2025)

Key:
[1] = system: Balb/c 3T3 (mouse fibroblasts); test: MTT assay; assay type: cell-based; conditions: BALB/c3T3, Balb/c 3T3, MTT, 72 h, M ± SD, n = 3
Method: (§1) DLD-1, HaCaT, and Balb/c 3T3 cells were maintained in DMEM, while HT-29 cells were grown in McCoy’s 5A medium with 10% FBS and 1% penicillin/streptomycin. All cell lines were incubated at 37 °C in a humidified atmosphere with 5% CO2. After detaching the cells with trypsin, they were quantified using a Scepter 3.0 automated cell counter (Millipore, Burlington, MA, USA).
(§2) The metabolic activity of cells exposed to the tested derivatives, doxorubicin, and DMSO, was assessed using an MTT assay according to the manufacturer’s protocol (Sigma-Aldrich, St. Louis, MO, USA). Adherent cells were seeded into 96-well plates (5000–10,000 cells in 100 µL of growth medium per well) and allowed to adhere overnight before treatment. For lymphocytes, activation with phytohemagglutinin-L (1 µg/mL) was performed for 24 h, after which they were seeded in 96-well plates at a density of 100,000 cells/well in RPMI-1640 medium supplemented with 20% FBS. The test substances, including Les-6547, Les-6557, and doxorubicin, were added to 100 µL of culture medium to achieve final concentrations of 0 µM, 0.1 µM, 1 µM, 2.5 µM, 10 µM, and 100 µM for all compounds, and the cells were further incubated for 24, 48, or 72 h. DMSO-treated cells served as the control. Then, 20 µL of MTT solution (5 mg/mL) was added and incubated for 2–4 h to allow formazan crystal formation. The formazan crystals were then solubilized by adding DMSO. The absorbance of formazan was measured at 570 nm using a ThermoScientific Evolution 201 UV-VIS spectrophotometer (ThermoFisher Scientific, Waltham, MA, USA). The control condition with 0.5% DMSO was considered 100% viability. The IC50 values for the compounds were determined using GraphPad Prism 8 and 9 software (GraphPad Software, Boston, MA, USA).

[2] = system: HT-29 colorectal adenocarcinoma cells; test: MTT assay; assay type: cell-based; conditions: Homo sapiens, HT-29, MTT, M ± SD, n = 3, read-out: IC50
Method: as §1, §2

[3] = system: HaCaT (human keratinocytes); test: MTT assay; assay type: cell-based; conditions: 72 h, M ± SD, n = 3
Method: as §1, §2

[4] = system: DLD-1 colorectal adenocarcinoma cells; test: MTT assay; assay type: cell-based, human; conditions: Homo sapiens, DLD-1, MTT, M ± SD, n = 3, read-out: IC50
Method: as §1, §2

Human blood lymphocytes = test: MTT assay; assay type: cell-based; conditions: Lymphocyte, human blood lymphocytes, 72 h, M ± SD, n = 3
Method: Lymphocytes from human peripheral blood were isolated with sodium heparin (10 U/mL) as an anticoagulant. Isolation was performed through a density gradient method with the Gradisol G, following a modified procedure. Peripheral blood was mixed with Gradisol G in equal proportions (1:1) and centrifuged at 400× g for 30 min at room temperature. The cells were collected, washed in phosphate-buffered saline (PBS), and treated with a hypotonic solution to remove residual erythrocytes. Lymphocytes were activated by phytohemagglutinin-L (1 µg/mL) and cultured in RPMI-1640 medium supplemented with 20% fetal bovine serum under controlled conditions of 95% air and 5% CO2 [27].
as §2

[5] = system: DLD-1 colorectal adenocarcinoma cells; test: Colony forming (clonogenic) assay; assay type: cell-based, human
Method: (§3) For colony forming assay, HT-29 and DLD-1 cells were seeded in 12-well plates at a density of 500 cells in 2 mL of growth medium per well. After overnight incubation, the cells were exposed to the compounds Les-6547, Les-6557, and doxorubicin at concentrations ranging from 0.1 to 100 µM for 72 h. Following treatment, the medium was replaced with fresh medium without the compounds. After 14 days of culture, cells were rinsed with PBS and fixed with cold methanol for 10 min. Subsequently, the cells were stained with a 0.1% crystal violet solution for 10 min. After washing, the plates were allowed to dry at room temperature. Numbers of colonies were quantified using ImageJ software (version 1.5.4; National Institutes of Health, Bethesda, MD, USA). The effect of the compounds on the colony-forming capacity was calculated as a percentage of colonies relative to the untreated control group.

[6] = system: HT-29 colorectal adenocarcinoma cells; test: Colony forming (clonogenic) assay; assay type: cell-based, human; conditions: Homo sapiens
Method: as §3

[7] = system: DLD-1 colorectal adenocarcinoma cells; test: [^3H]-thymidine incorporation assay (DNA biosynthesis); assay type: cell-based; conditions: Homo sapiens; DLD-1, 24 h, M ± SD, n = 3
Method: (§4) The anti-proliferative potential of Les-6547 and Les-6557 was analyzed using a clonogenic assay and incorporation of radioactive [^3H]-thymidine into the DNA of colorectal adenocarcinoma HT-29 and DLD-1 cell lines after 24 h of incubation with various concentrations of the tested agents.
(§5) Next, we examined the effects of the tested compounds on the proliferative activity of human colorectal adenocarcinoma cells by assessing their ability to influence DNA biosynthesis using the thymidine incorporation assay (Figure 6, Table 8). Les-6547 decreased DNA biosynthesis in DLD-1 cells to 50% at a concentration of 2.19 ± 0.39 µM.

[8] = system: HT-29 colorectal adenocarcinoma cells; test: as above; assay type: cell-based; conditions: Homo sapiens; HT-29, 24 h, M ± SD, n = 3
Method: as §4, §5

IC50 ([2]; 24 h): 17000 ± 880 nM | IC50 ([2]; 48 h): 1550 ± 140 nM | IC50 ([2]; 72 h): 2110 ± 60 nM | IC50 ([4]; 24 h): 65300 ± 6080 nM | IC50 ([4]; 48 h): 2010 ± 90 nM | IC50 ([4]; 72 h): 760 ± 100 nM | IC50 ([5]; Homo sapiens, DLD-1, 72 h treatment, 14 days of incubation, M ± SD, n = 3): 3.23 ± 0.05 µM | IC50 ([6]; HT-29, 72 h treatment, 14 days of incubation, n = 3): ~500 nM | IC50 [7]: 6.39 ± 0.02 µM | IC50 [8]: 4.72 ± 0.8 µM
SMILES: COc1cccc2c1C(=O)c1c(O)c3c(c(O)c1C2=O)C[C@@](O)(C(=O)CO)C[C@@H]3O[C@H]1C[C@H](N)[C@H](O)[C@H](C)O1 [Doxorubicin, doxorubicin, reference compound]
IC50 [1]: 560 ± 110 nM | IC50 [3]: 900 ± 100 nM | IC50 (Human blood lymphocytes): 710 ± 110 nM | colony growth ([5]; DLD-1, 10 µM): 3.86% | inhibition at 1 µM ([6]; HT-29, 1 µM, read-out: inhibition of colony formation): 100%
